{
  "source": "patent US5446055A",
  "about": "“Polyether naphthalenic lignan lactones as inhibitors of 5-lipoxygenase” (Abbott Laboratories, priority 1994, dated 1995)",
  "tested_on": "LTB4 biosynthesis in human whole blood",
  "assay": "calcium ionophore-induced LTB4 biosynthesis in human whole blood",
  "type": "cell-based",
  "settings": "at 13 nM; human heparinized whole blood, calcium ionophore A23187 challenge, LTB4 by radioimmunoassay; read-out: Inhibition of leukotriene biosynthesis",
  "experimental": "Inhibition of leukotriene biosynthesis was evaluated in an assay, involving calcium ionophore-induced LTB4 biosynthesis expressed human whole blood. Human heparinized whole blood was preincubated with test compounds or vehicle for 15 min at 37° C. followed by calcium ionophore A23 187 challenge (final concentration of 8.3/μM) and the reaction terminated after 30 min by adding two volumes of methanol containing prostaglandin B2 as an internal recovery standard. The methanol extract was analyzed for LTB4 using a commercially available radioimmunoassay.",
  "data": [
    {"smiles": "CON=C(c1cccc(COc2ccc3c(-c4ccc(F)cc4)c4c(cc3c2)C(=O)OC4)c1)[C@H]1COC(C)(C)O1", "note": "[Example 1, O-methylE- and Z-(4\"S)-7-[(3'-((2\",2\"-dimethyl-1\",3\"-dioxolan-4\"-yl)oximinomethyl)phenyl)oxymethylene]-4-(4-fluorophenyl)naptho[2,3-c]furan-1(3H)-one]", "values": [
      {"measurement": "inhibition at 0.013 µM", "result": 52, "unit": "%"}
    ]}
  ]
}
